Reference: US20110184017A1, “STABLE AQUEOUS SOLUTION COMPOSITION CONTAINING SULFONAMIDE COMPOUND” (ASAHI KASEI PHARMA CORPORATION, priority 2008, published 2011)
“Also recorded” adds a separate entry of the source.

Columns and labels:
Japanese white rabbits = test: Rabbit intraocular pressure reduction test; type: in vivo; conditions: FIG. 1
Description: In order to examine difference in the intraocular pressure reducing effect depending on a different pH of (S)-1-(4-chloro-5-isoquinolinesulfonyl)-3-(methylamino)pyrrolidine solution, the following test was performed by using Japanese white rabbits as experimental animals.
(S)-1-(4-Chloro-5-isoquinolinesulfonyl)-3-(methylamino)pyrrolidine hydrochloride obtained by the method described in International Patent Publication WO2007/026664 was dissolved in physiological saline, the solution was adjusted to pH 4, 5, 6, 7, 8 and 9 by adding sodium hydroxide, and the final concentration was adjusted to 0.5 mM. These solutions were used as (S)-1-(4-chloro-5-isoquinolinesulfonyl)-3-(methylamino)pyrrolidine solutions having different pH values.
The rabbits used were sufficiently conditioned for ophathalmic tonometry test, and used as groups each consisting of 6 animals. After a Benoxil ophthalmic solution 0.4% (an ophthalmologic local anesthesant, Santen Pharmaceutical Co., Ltd.) was applied to both eyes of each rabbit, intraocular pressure value before instillation was measured (initial intraocular pressure value, both right and left eyes) by using an ophathalmic tonometer (Model 30 Classic, Solan). […] After 2, 4, and 6 hours from the instillation, each rabbit was topically anesthetized with the an ophthalmologic local anesthesant, and intraocular pressure values of the both eyes were measured. […]

Photostability test = type: physicochemical; conditions: aqueous solution; estimated from similar absorption spectrum
Description: In the following test, LT-120D3CJ (Nagano Science Co., Ltd.) was used as a photostability tester. Purity of (S)-1-(4-chloro-5-isoquinolinesulfonyl)-3-(methylamino)pyrrolidine in the samples of the examples and the comparative example was measured by the liquid chromatography method described in Test Example 2.
The samples of Example 5 and Comparative Example 3 were subjected to light irradiation at 5,000 lux for ten days […] at 25° C. by using a D65 daylight fluorescent lamp installed in the photostability tester. As the photostability tester, an apparatus was used that was capable of uniformly irradiating the samples with light by turning a table. The illumination was 5,000 lux, and 1,200,000 lux·hr in total was irradiated over ten days. The accumulated near-ultraviolet energy during the photostability test was 474 to 488 W·h/m^2.
2) Purities of (S)-1-(4-chloro-5-isoquinolinesulfonyl)-3-(methylamino)pyrrolidine in the solutions of the light-irradiated samples were compared with that of a sample stored at 5° C. in a dark place.

photostability properties compared with the (methylamino)pyrrolidine compound (Photostability test) | Structure (SMILES) | intraocular pressure reducing action (Japanese white rabbits; 0.5 mM solutions adjusted to pH 4, 5, 6, 7, 8 and 9, instillation to normal rabbits, 2, 4 and 6 hours) | intraocular pressure reducing action (Japanese white rabbits; 0.5 mM solutions at pH 7 to 9, instillation to rabbits)
– | CN[C@H]1CCN(S(=O)(=O)c2cccc3cncc(Cl)c23)C1 [(S)-1-(4-chloro-5-isoquinolinesulfonyl)-3-(methylamino)pyrrolidine] | more strongly exhibited when a pH became higher in the range of pH 4 to 9; also recorded: became higher in a pH-dependent manner | strongly exhibited
similar | N[C@H]1CCN(S(=O)(=O)c2cccc3cncc(Cl)c23)C1 [(S)-1-(4-chloro-5-isoquinolinesulfonyl)-3-aminopyrrolidine] | – | –
